Measured values as given in patent publication US20250195521A1 (Revolution Medicines, Inc., priority 2020, published 2025).

Assays:
Type in all cases: biochemical
KRAS G13D = KRAS G13D (Homo sapiens (Human), UniProt P01116+P62937, G13D); assay: Ras-Raf disruption/FRET/MOA assay, KRAS G13D; conditions: read-out: KRAS G13D FRET IC50
Description: (§1) Disruption of B-Raf Ras-Binding Domain (BRAF^RBD) Interaction with K-Ras by Compounds of the Invention (Also Called a FRET Assay or an MOA Assay)
(§2) Note—The following protocol describes a procedure for monitoring disruption of K-Ras G12C (GMP-PNP) binding to BRAF^RBD by a compound of the invention. This protocol may also be executed substituting other Ras proteins or nucleotides, such as K-Ras G12D and K-Ras G13D.
(§3) The purpose of this biochemical assay was to measure the ability of test compounds to facilitate ternary complex formation between a nucleotide-loaded K-Ras isoform and Cyclophilin A; the resulting ternary complex disrupts binding to a BRAF^RBD construct, inhibiting K-Ras signaling through a RAF effector. Data is reported as IC50 values.
(§4) In assay buffer containing 25 mM HEPES pH 7.3, 0.002% Tween20, 0.1% BSA, 100 mM NaCl and 5 mM MgCl2, tagless Cyclophilin A, His6-K-Ras-GMPPNP, and GST-BRAF^RBD were combined in a 384-well assay plate at final concentrations of 25 μM, 12.5 nM, and 50 nM, respectively. Compound was present in plate wells as a 10-point 3-fold dilution series starting at a final concentration of 30 μM. After incubation at 25° C. for 3 hours, a mixture of anti-His Eu—W1024 and anti-GST allophycocyanin was then added to assay sample wells at final concentrations of 10 nM and 50 nM, respectively, and the reaction incubated for an additional 1.5 hours. […] Compounds that facilitate disruption of a K-Ras: RAF complex were identified as those eliciting a decrease in the TR-FRET ratio relative to DMSO control wells.

KRAS G12S = KRAS G12S (Homo sapiens (Human), UniProt P01116+P62937, G12S); assay: Ras-Raf disruption/FRET/MOA assay, KRAS G12S; conditions: read-out: KRAS G12S FRET IC50
KRAS G12S, sequence (P01116 other isoform, or with tags, fused parts or gaps G12S): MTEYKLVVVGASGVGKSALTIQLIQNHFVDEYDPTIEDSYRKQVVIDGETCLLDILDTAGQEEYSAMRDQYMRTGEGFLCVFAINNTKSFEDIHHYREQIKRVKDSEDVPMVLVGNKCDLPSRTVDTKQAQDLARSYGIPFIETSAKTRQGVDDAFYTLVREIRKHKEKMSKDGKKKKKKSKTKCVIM
KRAS G12S, sequence (P62937 whole entry): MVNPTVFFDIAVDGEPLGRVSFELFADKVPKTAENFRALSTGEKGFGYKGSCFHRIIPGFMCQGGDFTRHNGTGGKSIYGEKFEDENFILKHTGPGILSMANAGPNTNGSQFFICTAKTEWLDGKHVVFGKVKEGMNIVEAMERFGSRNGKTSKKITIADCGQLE
Description: as §1, §2, §3, §4

KRAS G13C = KRAS G13C (Homo sapiens (Human), UniProt P01116+P62937, G13C); assay: Ras-Raf disruption/FRET/MOA assay, KRAS G13C; conditions: read-out: KRAS G13C FRET IC50
KRAS G13C, sequence (P01116 other isoform, or with tags, fused parts or gaps G13C): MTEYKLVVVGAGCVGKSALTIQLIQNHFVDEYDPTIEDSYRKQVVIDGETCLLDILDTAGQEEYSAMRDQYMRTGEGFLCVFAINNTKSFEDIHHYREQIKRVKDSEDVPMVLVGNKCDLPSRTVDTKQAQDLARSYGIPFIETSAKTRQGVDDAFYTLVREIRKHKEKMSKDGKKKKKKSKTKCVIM
KRAS G13C, sequence (P62937 whole entry): as the sequence (P62937 whole entry) above
Description: as §1, §2, §3, §4

KRAS G12V = KRAS G12V (Homo sapiens (Human), UniProt P01116+P62937, G12V); assay: Ras-Raf disruption/FRET/MOA assay, KRAS G12V; conditions: read-out: KRAS G12V FRET IC50
KRAS G12V, sequence (P01116 other isoform, or with tags, fused parts or gaps G12V): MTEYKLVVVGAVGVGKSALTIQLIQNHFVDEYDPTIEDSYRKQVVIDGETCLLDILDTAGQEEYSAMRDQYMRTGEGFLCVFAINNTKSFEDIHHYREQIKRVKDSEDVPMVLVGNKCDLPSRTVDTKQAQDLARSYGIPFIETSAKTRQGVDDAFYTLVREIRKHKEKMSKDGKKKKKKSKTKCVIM
KRAS G12V, sequence (P62937 whole entry): as the sequence (P62937 whole entry) above
Description: as §1, §2, §3, §4

KRAS G12D = KRAS G12D (Homo sapiens (Human), UniProt P01116+P62937, G12D); assay: Ras-Raf disruption/FRET/MOA assay, KRAS G12D; conditions: read-out: KRAS G12D FRET IC50
KRAS G12D, sequence (P01116 other isoform, or with tags, fused parts or gaps G12D): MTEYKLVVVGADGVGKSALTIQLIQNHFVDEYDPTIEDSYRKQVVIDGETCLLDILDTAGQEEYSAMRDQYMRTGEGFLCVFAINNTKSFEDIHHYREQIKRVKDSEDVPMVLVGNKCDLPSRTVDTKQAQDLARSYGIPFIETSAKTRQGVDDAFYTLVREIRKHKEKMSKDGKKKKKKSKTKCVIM
KRAS G12D, sequence (P62937 whole entry): as the sequence (P62937 whole entry) above
Description: as §1, §2, §3, §4

KRAS WT = KRAS WT (Homo sapiens (Human), UniProt P01116+P62937); assay: Ras-Raf disruption/FRET/MOA assay, KRAS WT; conditions: read-out: KRAS WT FRET IC50
KRAS WT, sequence (P01116 other isoform, or with tags, fused parts or gaps): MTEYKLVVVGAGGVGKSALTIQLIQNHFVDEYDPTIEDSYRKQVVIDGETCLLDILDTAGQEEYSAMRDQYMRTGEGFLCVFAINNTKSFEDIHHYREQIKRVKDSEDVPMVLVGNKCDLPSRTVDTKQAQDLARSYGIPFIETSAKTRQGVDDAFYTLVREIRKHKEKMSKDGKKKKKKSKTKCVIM
KRAS WT, sequence (P62937 whole entry): as the sequence (P62937 whole entry) above
Description: as §1, §2, §3, §4

KRAS G12C = KRAS G12C (Homo sapiens (Human), UniProt P01116+P62937, G12C); assay: Ras-Raf disruption/FRET/MOA assay, KRAS G12C; conditions: read-out: KRAS G12C FRET data IC50
KRAS G12C, sequence (P01116-2 other isoform, or with tags, fused parts or gaps G12C): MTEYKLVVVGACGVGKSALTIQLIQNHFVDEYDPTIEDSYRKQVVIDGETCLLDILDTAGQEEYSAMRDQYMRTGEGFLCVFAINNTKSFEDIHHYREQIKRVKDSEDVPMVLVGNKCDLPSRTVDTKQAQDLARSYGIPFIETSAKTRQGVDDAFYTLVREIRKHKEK
KRAS G12C, sequence (P62937 whole entry): as the sequence (P62937 whole entry) above
Description: as §1, §2, §3, §4

NRAS G12C = NRAS G12C (Homo sapiens (Human), UniProt P01111+P62937, G12C); assay: Ras-Raf disruption/FRET/MOA assay, NRAS G12C; conditions: read-out: NRAS G12C FRET data IC50
NRAS G12C, sequence (P01111 whole entry G12C): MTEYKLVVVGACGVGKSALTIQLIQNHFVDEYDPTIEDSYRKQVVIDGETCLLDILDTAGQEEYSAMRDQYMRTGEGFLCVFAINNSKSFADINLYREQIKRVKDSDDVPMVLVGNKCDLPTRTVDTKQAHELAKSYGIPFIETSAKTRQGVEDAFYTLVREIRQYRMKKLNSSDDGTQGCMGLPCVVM
NRAS G12C, sequence (P62937 whole entry): as the sequence (P62937 whole entry) above
Description: as §1, §2, §3, §4

KRAS G13D, sequence (P01116 other isoform, or with tags, fused parts or gaps G13D): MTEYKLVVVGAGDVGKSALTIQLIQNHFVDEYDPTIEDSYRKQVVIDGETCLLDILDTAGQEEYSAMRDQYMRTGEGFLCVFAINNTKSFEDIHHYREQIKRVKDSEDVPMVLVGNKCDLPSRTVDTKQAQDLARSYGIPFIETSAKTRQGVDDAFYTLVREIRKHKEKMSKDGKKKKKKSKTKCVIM
KRAS G13D, sequence (P62937 whole entry, the tested form may be a part): as the sequence (P62937 whole entry) above

SMILES | IC50 (KRAS G13D) [nM] | IC50 (KRAS G12S) [nM] | IC50 (KRAS G13C) [nM] | IC50 (KRAS G12V) [nM] | IC50 (KRAS G12D) [nM] | IC50 (KRAS WT) [nM] | IC50 (KRAS G12C) [nM] | IC50 (NRAS G12C) [nM]
CCn1c(-c2cnccc2COC)c2c3cc(ccc31)-c1cc(O)cc(c1)C[C@H](NC(=O)[C@H](C(C)C)N(C)C(=O)[C@H]1CCN(C(=O)[C@H]3CN3)C1)C(=O)N1CCC[C@H](N1)C(=O)OCC(C)(C)C2 [Example 1, (3S)-1-((R)-aziridine-2-carbonyl)-N-((2S)-1-(((6^3S,4S)-1^1-ethyl-25-hydroxy-1^2-(4-(methoxymethyl)pyridin-3-yl)-10,10-dimethyl-5,7-dioxo-6^1,6^2,6^3,6^4,6^5,6^6-hexahydro-1^1H-8-oxa-1 (5,3)-indola-6 (1,3)-pyridazina-2 (1,3)-benzenacycloundecaphane-4-yl)amino)-3-methyl-1-oxobutan-2-yl)-N-methylpyrrolidine-3-carboxamide] | 100 to 1000 | 10 to 100 | 100 to 1000 | 10 to 100 | 100 to 1000 | 100 to 1000 | < 10 | < 10
CCn1c(-c2cnccc2COC)c2c3cc(ccc31)-c1cc(O)cc(c1)C[C@H](NC(=O)[C@H](C(C)C)N(C)C(=O)[C@H]1CCN(C(=O)[C@@H]3CN3)C1)C(=O)N1CCC[C@H](N1)C(=O)OCC(C)(C)C2 [Example 2] | 100 to 1000 | 100 to 1000 | 100 to 1000 | 100 to 1000 | 100 to 1000 | 100 to 1000 | 10 to 100 | 10 to 100
CCn1c(-c2cnccc2COC)c2c3cc(ccc31)-c1cc(O)cc(c1)C[C@H](NC(=O)[C@H](C(C)C)N(C)C(=O)C1CCN(C(=O)[C@H]3CN3)CC1)C(=O)N1CCC[C@H](N1)C(=O)OCC(C)(C)C2 [Example 3] | 100 to 1000 | 100 to 1000 | 10 to 100 | 100 to 1000 | 1000 to 10000 | 100 to 1000 | 10 to 100 | 10 to 100
CCn1c(-c2cnccc2COC)c2c3cc(ccc31)-c1cc(O)cc(c1)C[C@H](NC(=O)[C@H](C(C)C)N(C)C(=O)C1CCN(C(=O)[C@@H]3CN3)CC1)C(=O)N1CCC[C@H](N1)C(=O)OCC(C)(C)C2 [Example 4] | 100 to 1000 | 100 to 1000 | 10 to 100 | 100 to 1000 | 1000 to 10000 | 100 to 1000 | 10 to 100 | 100 to 1000
CCn1c(-c2cnccc2COC)c2c3cc(ccc31)-c1cc(O)cc(c1)C[C@H](NC(=O)[C@H](C(C)C)N(C)C(=O)C1CN(C(=O)[C@H]3CN3)C1)C(=O)N1CCC[C@H](N1)C(=O)OCC(C)(C)C2 [Example 5] | 100 to 1000 | 100 to 1000 | 100 to 1000 | 100 to 1000 | 1000 to 10000 | 100 to 1000 | 10 to 100 | < 10
CCn1c(-c2cnccc2COC)c2c3cc(ccc31)-c1cc(O)cc(c1)C[C@H](NC(=O)[C@H](C(C)C)N(C)C(=O)C1CN(C(=O)[C@@H]3CN3)C1)C(=O)N1CCC[C@H](N1)C(=O)OCC(C)(C)C2 [Example 6] | 1000 to 10000 | 100 to 1000 | 100 to 1000 | 100 to 1000 | 1000 to 10000 | 100 to 1000 | 10 to 100 | 10 to 100
CCn1c(-c2cnccc2COC)c2c3cc(ccc31)-c1cc(O)cc(c1)C[C@H](NC(=O)[C@@H](CCNC(=O)NCCCl)C(C)C)C(=O)N1CCC[C@H](N1)C(=O)OCC(C)(C)C2 [Example 26] | 1000 to 10000 | > 10000 | > 10000 | 1000 to 10000 | > 10000 | 1000 to 10000 | 1000 to 10000 | 1000 to 10000
CCn1c(-c2cccnc2COC)c2c3cc(ccc31)-c1cc(O)cc(c1)C[C@H](NC(=O)[C@H](C(C)C)N(C)C(=O)CCNC1=NCCO1)C(=O)N1CCC[C@H](N1)C(=O)OCC(C)(C)C2 [Example 27] | 1000 to 10000 | > 10000 | 1000 to 10000 | 1000 to 10000 | > 10000 | 1000 to 10000 | 1000 to 10000 | > 10000
CCn1c(-c2cccnc2COC)c2c3cc(ccc31)-c1cc(O)cc(c1)C[C@H](NC(=O)[C@H](C(C)C)N(C)C(=O)CNC1=NCCO1)C(=O)N1CCC[C@H](N1)C(=O)OCC(C)(C)C2 [Example 28] | 1000 to 10000 | > 10000 | 1000 to 10000 | 1000 to 10000 | > 10000 | > 10000 | 1000 to 10000 | 1000 to 10000
CCn1c(-c2cnccc2COC)c2c3cc(ccc31)-c1cc(O)cc(c1)C[C@H](NC(=O)[C@H](C(C)C)N(C)C(=O)[C@H]1CCN(C(=O)[C@@H]3CO3)C1)C(=O)N1CCC[C@H](N1)C(=O)OCC(C)(C)C2 [Example 31, (3S)—N-((2S)-1-(((6^3S,4S)-1^1-ethyl-25-hydroxy-1^2-(4-(methoxymethyl)pyridin-3-yl)-10,10-dimethyl-5,7-dioxo-6^1,6^2,6^3,6^4,6^5,6^6-hexahydro-1^1H-8-oxa-1 (5,3)-indola-6 (1,3)-pyridazina-2 (1,3)-benzenacycloundecaphane-4-yl)amino)-3-methyl-1-oxobutan-2-yl)-N-methyl-1-((S)-oxirane-2-carbonyl) pyrrolidine-3-carboxamide] | 1000 to 10000 | 100 to 1000 | 100 to 1000 | 100 to 1000 | 1000 to 10000 | 1000 to 10000 | 10 to 100 | 100 to 1000
CCn1c(-c2cnccc2COC)c2c3cc(ccc31)-c1cc(O)cc(c1)C[C@H](NC(=O)[C@H](C(C)C)N(C)C(=O)CCN(C)C(=O)[C@@H]1CN1)C(=O)N1CCC[C@H](N1)C(=O)OCC(C)(C)C2 [Example 40] | 100 to 1000 | 100 to 1000 | 100 to 1000 | 100 to 1000 | 100 to 1000 | 100 to 1000 | 100 to 1000 | 100 to 1000
CCn1c(-c2cnccc2COC)c2c3cc(ccc31)-c1cc(O)cc(c1)C[C@H](NC(=O)[C@H](C(C)C)N(C)C(=O)N1CCCN(C(=O)[C@H]3CN3)CC1)C(=O)N1CCC[C@H](N1)C(=O)OCC(C)(C)C2 [Example 44] | 100 to 1000 | 100 to 1000 | 10 to 100 | 10 to 100 | 100 to 1000 | 10 to 100 | 10 to 100 | 10 to 100
CCn1c(-c2cnccc2COC)c2c3cc(ccc31)-c1cc(O)cc(c1)C[C@H](NC(=O)[C@H](C(C)C)N(C)C(=O)N1CCCN(C(=O)[C@@H]3CN3)CC1)C(=O)N1CCC[C@H](N1)C(=O)OCC(C)(C)C2 [Example 45] | 100 to 1000 | 100 to 1000 | 10 to 100 | 100 to 1000 | 100 to 1000 | 10 to 100 | 10 to 100 | 10 to 100
CCn1c(-c2cnccc2COC)c2c3cc(ccc31)-c1cc(O)cc(c1)C[C@H](NC(=O)[C@H](C(C)C)N(C)C(=O)c1ccc(NC(=O)[C@@H]3CN3)cn1)C(=O)N1CCC[C@H](N1)C(=O)OCC(C)(C)C2 [Example 46] | 1000 to 10000 | 100 to 1000 | 100 to 1000 | 1000 to 10000 | 1000 to 10000 | 1000 to 10000 | 100 to 1000 | 100 to 1000
CCn1c(-c2cnccc2COC)c2c3cc(ccc31)-c1cc(O)cc(c1)C[C@H](NC(=O)[C@@H](CN(C)C(=O)[C@@H]1CN1)C(C)C)C(=O)N1CCC[C@H](N1)C(=O)OCC(C)(C)C2 [Example 60] | > 10000 | > 10000 | > 10000 | 1000 to 10000 | > 10000 | > 10000 | 1000 to 10000 | > 10000
CCn1c(-c2cnccc2COC)c2c3cc(ccc31)-c1cccc(c1)C[C@H](NC(=O)[C@H](C(C)C)N(C)C(=O)CCN=C=Nc1ccccc1COC)C(=O)N1CCC[C@H](N1)C(=O)OCC(C)(C)C2 [Example 63] | > 10000 | 1000 to 10000 | 1000 to 10000 | 1000 to 10000 | 1000 to 10000 | 1000 to 10000 | 1000 to 10000 | 1000 to 10000
